The values below come from patent US20250325677A1, “STAT6 DEGRADERS” (Gilead Sciences, Inc., priority 2024, published 2025).

Usually EC50 stands for the concentration needed to bring the measured effect to its halfway point. One may read the DC50 as the concentration at which degradation of the target reaches its halfway point. By Emax is commonly meant the greatest response seen or fitted, relative to the assay's reference.

One assay relates to eotaxin-3 release. The experiment in a line: Human whole blood eotaxin-3 assay (IL-4 stimulated). In kind it is cell-based. The note with it: human whole blood, IL-4 0.4 nM, 48 hours; geometric mean; given for compounds with >80% Emax; read-out: Eotaxin-3 EC50. A digest of the protocol: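 Human whole blood was preincubated with compound for 120 min at 37 °C, then stimulated with recombinant human IL-4 (E. coli) at 0.4 nM final for 48 h. Inhibition of eotaxin-3 release gave EC50 values.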

The target in another assay is STAT6 (Homo sapiens (Human), UniProt P42226). The experiment in a line: STAT6 degrader assay (HiBiT, HeLa LgBiT clone 4.14). In kind it is cell-based. The note with it: HeLa LgBiT clone 4.14, 4-24 h; for DC50: geometric mean, given for compounds with >80% Emax, read-out: STAT6 degradation DC50. A digest of the protocol: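 DC50 (nM) comes from luminescence of non-degraded STAT6 read 0.5 h after Nano-GLO addition, following 4-24 h compound exposure at 37° C. Cells were HeLa clone 4.14 expressing LgBiT with a CRISPR HiBiT tag on endogenous STAT6; 50 μM terfenadine set full degradation.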
STAT6, sequence (P42226 whole entry): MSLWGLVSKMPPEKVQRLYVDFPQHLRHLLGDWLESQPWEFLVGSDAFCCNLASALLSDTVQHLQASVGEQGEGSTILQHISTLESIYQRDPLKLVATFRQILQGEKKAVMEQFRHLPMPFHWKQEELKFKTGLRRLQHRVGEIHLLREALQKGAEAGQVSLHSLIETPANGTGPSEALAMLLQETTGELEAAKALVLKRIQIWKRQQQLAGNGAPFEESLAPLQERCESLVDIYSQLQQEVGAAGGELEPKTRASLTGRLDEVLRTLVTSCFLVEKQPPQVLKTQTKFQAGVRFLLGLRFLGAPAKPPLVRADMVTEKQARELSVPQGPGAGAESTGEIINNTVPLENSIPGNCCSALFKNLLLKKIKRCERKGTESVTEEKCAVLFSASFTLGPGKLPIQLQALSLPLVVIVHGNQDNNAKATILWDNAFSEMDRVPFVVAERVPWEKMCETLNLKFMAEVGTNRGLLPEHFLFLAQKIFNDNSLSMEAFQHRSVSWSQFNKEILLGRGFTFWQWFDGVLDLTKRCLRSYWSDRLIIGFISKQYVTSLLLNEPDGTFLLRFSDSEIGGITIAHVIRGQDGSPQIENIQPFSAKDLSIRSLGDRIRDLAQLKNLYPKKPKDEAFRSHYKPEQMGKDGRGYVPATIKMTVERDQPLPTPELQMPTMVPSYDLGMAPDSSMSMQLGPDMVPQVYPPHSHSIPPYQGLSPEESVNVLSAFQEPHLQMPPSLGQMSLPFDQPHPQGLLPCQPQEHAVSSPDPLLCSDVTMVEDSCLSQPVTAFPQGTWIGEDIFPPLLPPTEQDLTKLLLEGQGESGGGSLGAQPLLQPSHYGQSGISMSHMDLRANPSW
A general note: HiBiT is a short tag that completes a luciferase, so light tracks the accessible tagged protein.

As to `C[C@@H](c1cc2c(-c3ccc(N)nc3)ccnc2n1C)N1CCC(c2ccc(C(=O)N3CCC(CN4CCN(Cc5cc6c(cc5F)n(C5CCC(=O)NC5=O)c(=O)n6C5CC5)CC4)CC3)cc2)CC1` (stereo partly drawn) [Example 3e35, 3-(5-((4-((1-(4-(1-((S)-1-(4-(6-aminopyridin-3-yl)-1-methyl-1H-pyrrolo[2,3-b]pyridin-2-yl)ethyl)piperidin-4-yl)benzoyl)piperidin-4-yl)methyl)piperazin-1-yl)methyl)-3-cyclopropyl-6-fluoro-2-oxo-2,3-dihydro-1H-benzo[d]imidazol-1-yl)piperidine-2,6-dione], the EC50 with eotaxin-3 release was 7.9 nM. For the same compound, the 50% degradation concentration (DC50) on STAT6 turned out to be 3.2 nM.
With `C[C@@H](c1cc2c(-c3ccc(N)nc3)ccnc2n1C)N1CCC(c2ccc(C(=O)N3CCC(CN4CCN(Cc5ccc6c(c5)n(CCO)c(=O)n6C5CCC(=O)NC5=O)CC4)CC3)cc2)CC1` (stereo partly drawn) [Example 3e36, 3-(5-((4-((1-(4-(1-((S)-1-(4-(6-aminopyridin-3-yl)-1-methyl-1H-pyrrolo[2,3-b]pyridin-2-yl)ethyl)piperidin-4-yl)benzoyl)piperidin-4-yl)methyl)piperazin-1-yl)methyl)-3-(2-hydroxyethyl)-2-oxo-2,3-dihydro-1H-benzo[d]imidazol-1-yl)piperidine-2,6-dione], in the assay with eotaxin-3 release, the EC50 was found to be 23.7 nM. For the same compound, the Emax on STAT6 (read-out: STAT6 degradation Emax (%)) lay within 70 to 80%.
Turning to `C[C@H]1CN(Cc2ccc3c(c2)n(C)c(=O)n3C2CCC(=O)NC2=O)CCN1CC1CCN(C(=O)c2ccc(C3CCN([C@@H](C)c4cc5c(-c6ccc7[nH]c(=O)n(C)c7c6)ccnc5n4C)CC3)cc2)CC1` (stereo partly drawn) [Example 3e37, 3-(3-methyl-5-(((S)-3-methyl-4-((1-(4-(1-((S)-1-(1-methyl-4-(3-methyl-2-oxo-2,3-dihydro-1H-benzo[d]imidazol-5-yl)-1H-pyrrolo[2,3-b]pyridin-2-yl)ethyl)piperidin-4-yl)benzoyl)piperidin-4-yl)methyl)piperazin-1-yl)methyl)-2-oxo-2,3-dihydro-1H-benzo[d]imidazol-1-yl)piperidine-2,6-dione], in the assay with eotaxin-3 release, the EC50 worked out at 1.4 nM. The DC50 at STAT6 came to 0.2 nM.
With `C[C@H]1CN(Cc2ccc3c(c2)n(C)c(=O)n3C2CCC(=O)NC2=O)CCN1CC1CCN(C(=O)c2ccc(C3CCN([C@@H](C)c4cc5c(-c6ncc(N)cc6F)ccnc5n4C)CC3)cc2)CC1` (stereo partly drawn) [Example 3e38, 3-(5-(((S)-4-((1-(4-(1-((S)-1-(4-(5-amino-3-fluoropyridin-2-yl)-1-methyl-1H-pyrrolo[2,3-b]pyridin-2-yl)ethyl)piperidin-4-yl)benzoyl)piperidin-4-yl)methyl)-3-methylpiperazin-1-yl)methyl)-3-methyl-2-oxo-2,3-dihydro-1H-benzo[d]imidazol-1-yl)piperidine-2,6-dione], the EC50 with eotaxin-3 release came to 7.8 nM. Besides, at STAT6, the DC50 came out at 1 nM.
In the case of `C[C@H]1CN(Cc2ccc3c(c2)n(C)c(=O)n3C2CCC(=O)NC2=O)CCN1CC1CCN(C(=O)c2ccc(C3CCN([C@@H](C)c4cc5c(-c6ccc(NCCO)nc6)ccnc5n4C)CC3)cc2)CC1` (stereo partly drawn) [Example 3e40, 3-(5-(((S)-4-((1-(4-(1-((S)-1-(4-(6-((2-hydroxyethyl)amino)pyridin-3-yl)-1-methyl-1H-pyrrolo[2,3-b]pyridin-2-yl)ethyl)piperidin-4-yl)benzoyl)piperidin-4-yl)methyl)-3-methylpiperazin-1-yl)methyl)-3-methyl-2-oxo-2,3-dihydro-1H-benzo[d]imidazol-1-yl)piperidine-2,6-dione], in the assay with eotaxin-3 release, the half-maximal effective concentration (EC50) came to 3.8 nM. Further, the half-maximal degradation concentration (DC50) on STAT6 was 0.5 nM.
On to `COc1nc(N)ccc1-c1ccnc2c1cc([C@H](C)N1CCC(c3ccc(C(=O)N4CCC(CN5CCN(Cc6ccc7c(c6)n(C)c(=O)n7C6CCC(=O)NC6=O)C[C@@H]5C)CC4)cc3)CC1)n2C` (stereo partly drawn) [Example 3e41, 3-(5-(((S)-4-((1-(4-(1-((S)-1-(4-(6-amino-2-methoxypyridin-3-yl)-1-methyl-1H-pyrrolo[2,3-b]pyridin-2-yl)ethyl)piperidin-4-yl)benzoyl)piperidin-4-yl)methyl)-3-methylpiperazin-1-yl)methyl)-3-methyl-2-oxo-2,3-dihydro-1H-benzo[d]imidazol-1-yl)piperidine-2,6-dione], for which the half-maximal effective concentration (EC50) in the assay with eotaxin-3 release turned out to be 0.8 nM. Besides, the DC50 at STAT6 was 0.2 nM.
For `C[C@@H](c1cc2c(-c3ccc(N)nc3)ccnc2n1C)N1CCC(c2ccc(C(=O)N3CCC(CN4CCN(Cc5ccc6c(c5)n(C)c(=O)n6C5CCC(=O)NC5=O)C[C@@H]4C(F)(F)F)CC3)cc2)CC1` (stereo partly drawn) [Example 3e42, 3-(5-(((R)-4-((1-(4-(1-((S)-1-(4-(6-aminopyridin-3-yl)-1-methyl-1H-pyrrolo[2,3-b]pyridin-2-yl)-ethyl)piperidin-4-yl)benzoyl)piperidin-4-yl)methyl)-3-(trifluoromethyl)piperazin-1-yl)methyl)-3-methyl-2-oxo-2,3-dihydro-1H-benzo[d]imidazol-1-yl)piperidine-2,6-dione], the EC50 in the assay with eotaxin-3 release is 3.4 nM. The DC50 at STAT6 came out at 1.8 nM.
As for `C[C@@H](c1cc2c(-c3ccc(N)nc3)ccnc2n1C)N1CCC(c2ccc(C(=O)N3CCC(CN4CCN(Cc5ccc6c(c5)n(C)c(=O)n6C5CCC(=O)NC5=O)C[C@H]4C(F)(F)F)CC3)cc2)CC1` (stereo partly drawn) [Example 3e43, 3-(5-(((S)-4-((1-(4-(1-((S)-1-(4-(6-aminopyridin-3-yl)-1-methyl-1H-pyrrolo[2,3-b]pyridin-2-yl)ethyl)piperidin-4-yl)benzoyl)piperidin-4-yl)methyl)-3-(trifluoro-methyl)piperazin-1-yl)methyl)-3-methyl-2-oxo-2,3-dihydro-1H-benzo[d]imidazol-1-yl)piperidine-2,6-dione], the EC50 in the assay on eotaxin-3 release stood at 4.6 nM. In addition, the DC50 at STAT6 was found to be 2.8 nM.
Consider `C[C@H]1CN(Cc2ccc3c(c2)n(C)c(=O)n3C2CCC(=O)NC2=O)CCN1CC1(F)CCN(C(=O)c2ccc(C3CCN([C@@H](C)c4cc5c(-c6ccc(N)nc6)ccnc5n4C)CC3)cc2)CC1` (stereo partly drawn) [Example 3e45, 3-(5-(((S)-4-((1-(4-(1-((S)-1-(4-(6-aminopyridin-3-yl)-1-methyl-1H-pyrrolo[2,3-b]pyridin-2-yl)ethyl)piperidin-4-yl)benzoyl)-4-fluoropiperidin-4-yl)methyl)-3-methylpiperazin-1-yl)methyl)-3-methyl-2-oxo-2,3-dihydro-1H-benzo[d]imidazol-1-yl)piperidine-2,6-dione], for which the EC50 with eotaxin-3 release worked out at 2.1 nM. On STAT6, the DC50 turned out to be 0.8 nM.
`C[C@H]1CN(Cc2ccc3c(c2)n(C)c(=O)n3C2CCC(=O)NC2=O)CCN1CC1CCN(C(=O)c2ccc(C3CCN([C@@H](C)c4cc5c(-c6cnc(N)c(F)c6)ccnc5n4C)CC3)cc2)CC1` (stereo partly drawn) [Example 3e47, 3-(5-(((S)-4-((1-(4-(1-((S)-1-(4-(6-amino-5-fluoropyridin-3-yl)-1-methyl-1H-pyrrolo[2,3-b]pyridin-2-yl)ethyl)piperidin-4-yl)benzoyl)piperidin-4-yl)methyl)-3-methylpiperazin-1-yl)methyl)-3-methyl-2-oxo-2,3-dihydro-1H-benzo[d]imidazol-1-yl)piperidine-2,6-dione]: the EC50 in the assay with eotaxin-3 release is 4.9 nM. In addition, the 50% degradation concentration (DC50) on STAT6 is 2.2 nM.
